Values after ≈ are worked out from the molar mass of the structure shown. “Also recorded” adds a separate entry of the source. Where a name gives a salt, the structure may show the parent alone. Read-outs that look alike come from different tables or passages of the source.
Key:
[1] = Solubility in water and 2% Tw80 of samples used in toxicological formulation assessments; type: physicochemical
From the text: Table 6 summarizes various solid-state properties of samples used in toxicological formulation assessments.

[2] = physchem; conditions: for solubility at 24 h: aqueous buffer, thermodynamic from solid
Method: The pH solubility profile was generated first with Sample D containing polymorph Form A, and then with Sample F containing polymorph Form B, in HCl/NaOH solutions. After 24 hour equilibration, suspensions were centrifuged and the supernatants assayed by HPLC.
The solubility data was analyzed as a function of pH using the Henderson-Hasselbach equation:
Solubility=S0·[10^(PH-pKa)+1],
where S0 is the intrinsic solubility of the free acid.

[3] = Solid state stability; type: physicochemical; conditions: 40° C./75% RH, open and closed vials, 3 months
Method: Sample F containing polymorph Form B was further investigated at 40° C./75% RH using open and closed vials for 3 months. […] Therefore, the monohydrate needs to be stored in hermetically sealed containers in order to prevent conversion to the sesquihydrate.

[4] = Thermal stress of polymorph Form B (vacuum drying, oven); type: physicochemical
Method: Polymorph Form B (Sample F) was stressed with vacuum drying at 40° C.

[5] = Solid state stability; type: physicochemical
[6] = Polymorphic conversion study in aqueous media (2% Tween 80, water); type: physicochemical
From the text: Polymorphic conversion of Form A to Form B was not observed with Sample D in 2% Tween 80 or water.
Polymorph pseudo Form A was obtained from a scaled up preparation of polymorph Form A (Sample E).
The polymorphic conversion appeared to be slower in water than in the 2% Tween suspension, probably due to the lower solubility in water.
DSC data also supported this observation (FIG. 11).

[7] = Equilibrium moisture study in desiccators with saturated salt solutions (KF, XRD); type: physicochemical; conditions: Sample F incubated at room temperature, 20 days; listed as sesquihydrate
Method: As a result, an equilibrium moisture study using desiccators containing saturated salt solutions for humidity control was performed. […] Samples were periodically assayed by KF titration to give the kinetic profiles. XRD analysis was performed at the end of 20 days. The data is summarized in Table 8 with kinetic and equilibrium data plotted in FIGS. 18 and 19.

[8] = Dynamic Vapor Sorption (DVS) analysis; type: physicochemical; conditions: room temperature, 6-hour equilibration period
From the text: Sample F was subject to Dynamic Vapor Sorption (DVS) analysis at room temperature. The sample was first analyzed by Karl Fischer (KF) titration containing initial moisture content of 3.7% for the monohydrate form. RH cycling started at 50% relative humidity (RH) to 100% RH and down to 0% RH and then back up to 100% RH. A 3-hour/step equilibration period was found insufficient, so the run was repeated with a 6-hour period, which was still not sufficient.
As a result, an equilibrium moisture study using desiccators containing saturated salt solutions for humidity control was performed. Sample F was incubated at 0%, 15%, 31%, 66%, 87%, and 100% RH in room temperature for up to 20 days. Samples were periodically assayed by KF titration to give the kinetic profiles. XRD analysis was performed at the end of 20 days. The data is summarized in Table 8 with kinetic and equilibrium data plotted in FIGS. 18 and 19.

[9] = Solubility of suspensions in Tox formulation (2% Tween 80 in water) by HPLC; type: physicochemical; conditions: ambient conditions
Method: Suspensions of 10 to 20 mg/mL of compound (I) in a Tox (toxicological) formulation (2% Tween 80 in water) using the polymorphs described above were prepared and equilibrated at ambient conditions. The stability of the suspensions was evaluated visually and the solubility of the suspensions was determined by HPLC.
Mobile Phase: A=900 mL/100 mL/0.1 mL Water/Acetonitrile/TFA
B=100 mL/900 mL/0.1 mL Water/Acetonitrile/TFA

[10] = In situ rat perfusion model, metoprolol as reference; type: in vivo; parameters: Papp: dose or concentration left out as unconfirmed
From the text: The permeability was 18.2 nm/sec, which is higher than the 14.5 nm/sec value obtained for metoprolol (Table 13).

[11] = First CACO-2 study, metoprolol as reference; conditions: human; for recovery: Caco-2, pH 7.4, % Recovery, pH 7.4
[12] = Second CACO-2 study, propranolol as reference; type: in vitro ADME; conditions: human, Caco-2; A → B, apical pH 6, basolateral pH 7, without verapamil
From the text: The second CACO-2 study gave somewhat different results (Table 12). Because metoprolol interferes with the LC/MS assay, propranolol, which has a permeability that is […] metoprolol, was used as the FDA calibration compound. The apical pH was controlled at 6 and basolateral pH at pH 7. In addition, verapamil was used as a competitive inhibitor of the Pgp (P-glycoprotein) transporter. The ratios to propranolol were 1.00 and 0.77 with and without verapamil. […] The B→A/A→B ratios were low at 0.3 and 0.3, with and without verapamil, respectively, indicating again no efflux […].

[13] = vacuum drying at 40° C., 36 hours
[14] = 1-month storage at 40° C./75% RH

Q: What does the source list for `CC(C)(Cc1ccc(F)cc1)NC(=O)[C@H](CCC(=O)O)NC(=O)c1ccc(-c2ccccc2)cc1` [G, N^2-(1,1′-biphenyl-4-ylcarbonyl)-N^1-[2-(4-fluorophenyl)-1,1-dimethylethyl]-L-α-glutamine]?
A: Solubility, 2% Tw80 [1]: 127 µg/mL (≈ 266 µM); pH of 2% Tw80 solubility sample [1]: 5.9

Q: With `CC(C)(Cc1ccc(F)cc1)NC(=O)[C@H](CCC(=O)O)NC(=O)c1ccc(-c2ccccc2)cc1` [Sample F, N^2-(1,1′-biphenyl-4-ylcarbonyl)-N^1-[2-(4-fluorophenyl)-1,1-dimethylethyl]-L-α-glutamine] as the molecule, how does the solubility at 24 h ([2]; Solubility at pH<4 (below HPLC detection limit)) read?
A: The solubility at 24 h was < 0.011 µg/mL.

Q: And the “Chemical stability, solid state” value [3]?
A: Its value is “chemically stable”.

Q: What about the “Conversion of monohydrate to anhydrate” value ([4]; 100° C. oven, 23 hours) of the same molecule?
A: The value was “convert completely to the anhydrate”.

Q: And the “Conversion of monohydrate to anhydrate” value [4, 13]?
A: The value was “did not convert to the anhydrate”.

Q: And the Water retained [4, 13]?
A: Its Water retained is 2.95%.

Q: What about the “Solubility, 2% Tw80” value [1] of the same molecule?
A: Its value is 217 µg/mL (≈ 455 µM).

Q: And the “pH of 2% Tw80 solubility sample” value [1]?
A: The value was 5.9.

Q: And the “Solubility, Water” value [1]?
A: The value was 99 µg/mL (≈ 208 µM).

Q: And the “pH of water solubility sample” value [1]?
A: The value was 7.6.

Q: What about the “Polymorphic conversion (DSC and XRD)” value [5, 14] of the same molecule?
A: The value was “polymorphic conversion from Form B to Form C”.

Q: What about the Water content [5, 14] of the same molecule?
A: The Water content was 5.4%.

Q: With `CC(C)(Cc1ccc(F)cc1)NC(=O)[C@H](CCC(=O)O)NC(=O)c1ccc(-c2ccccc2)cc1` [Sample D, N^2-(1,1′-biphenyl-4-ylcarbonyl)-N^1-[2-(4-fluorophenyl)-1,1-dimethylethyl]-L-α-glutamine] as the molecule, how does the solubility at 24 h ([2]; Solubility at pH<4) read?
A: Its solubility at 24 h is ~4.5 µg/mL (≈ 9.44 µM).

Q: And the Polymorphic conversion ([6]; 2% Tween 80/water suspension, overnight)?
A: Its Polymorphic conversion is “not observed; also recorded: did not undergo polymorphic conversion”.

Q: What about the “Polymorphic conversion / Polymorph Form after stirring” value ([6]; suspension 100 mg/mL in water, overnight (~18 hr), ambient conditions) of the same molecule?
A: Its value is “not observed; also recorded: did not undergo polymorphic conversion”.

Q: What about the “Solubility, 2% Tw80” value [1] of the same molecule?
A: The value was 468 µg/mL (≈ 982 µM).

Q: And the “pH of 2% Tw80 solubility sample” value [1]?
A: The value was 5.4.

Q: And the “Solubility, Water” value [1]?
A: The value was 37 µg/mL (≈ 77.6 µM).

Q: What about the “pH of water solubility sample” value [1] of the same molecule?
A: The value was 5.5.

Q: And the “Chemical stability, solid state” value ([5]; 14-day storage at room temperature, in temperatures up to 80° C., and in a light box (510 fc))?
A: Its value is “demonstrated chemical stability”.

Q: For `CC(C)(Cc1ccc(F)cc1)NC(=O)[C@H](CCC(=O)O)NC(=O)c1ccc(-c2ccccc2)cc1` [Form C, N^2-(1,1′-biphenyl-4-ylcarbonyl)-N^1-[2-(4-fluorophenyl)-1,1-dimethylethyl]-L-α-glutamine], which “RH range at which the form is present by XRD” value [7] is on record?
A: The value was 66-100 % RH.

Q: And the “RH range in which the form is stable (DVS)” value [8]?
A: The value was 30-100 % RH.

Q: With `CC(C)(Cc1ccc(F)cc1)NC(=O)[C@H](CCC(=O)O)NC(=O)c1ccc(-c2ccccc2)cc1` [sodium salt, N^2-(1,1′-biphenyl-4-ylcarbonyl)-N^1-[2-(4-fluorophenyl)-1,1-dimethylethyl]-L-α-glutamine] as the molecule, how does the “Solubility at pH 12.8” value ([2]; HCl/NaOH solutions, 24 hour equilibration, HPLC) read?
A: The value was 4.7 mg/mL.

Q: Which solubility [9] does the source give for `CC(C)(Cc1ccc(F)cc1)NC(=O)[C@H](CCC(=O)O)NC(=O)c1ccc(-c2ccccc2)cc1` [Sample 2, N^2-(1,1′-biphenyl-4-ylcarbonyl)-N^1-[2-(4-fluorophenyl)-1,1-dimethylethyl]-L-α-glutamine] here?
A: Its solubility is 245.0 µg/mL (≈ 514 µM).

Q: For `COCCc1ccc(OCC(O)CNC(C)C)cc1` (centres unmarked) [Metoprolol, reference compound], which Papp ([10]; in situ rat perfusion model, read-out: permeability) is on record?
A: Its Papp is 1.45 ×10⁻⁶ cm/s.

Q: And the “Peff × 10^−1 (μm/sec)” value ([10]; rat perfusion, 20 μg/mL)?
A: The value was 1.45 × 10^−1 μm/sec.

Q: And the Papp A→B ([11]; Caco-2, pH 7.4)?
A: The Papp A→B was 60.4 ×10⁻⁶ cm/s.

Q: What about the recovery ([11]; A → B) of the same molecule?
A: Its recovery is 109%.

Q: And the recovery ([11]; B → A)?
A: Its recovery is 115%.

Q: For `CC(C)(Cc1ccc(F)cc1)NC(=O)[C@H](CCC(=O)O)NC(=O)c1ccc(-c2ccccc2)cc1` [Sample 1, N^2-(1,1′-biphenyl-4-ylcarbonyl)-N^1-[2-(4-fluorophenyl)-1,1-dimethylethyl]-L-α-glutamine], which solubility [9] is on record?
A: Its solubility is 201.9 µg/mL (≈ 424 µM).

Q: For `CC(C)(Cc1ccc(F)cc1)NC(=O)[C@H](CCC(=O)O)NC(=O)c1ccc(-c2ccccc2)cc1` [Sample 7, N^2-(1,1′-biphenyl-4-ylcarbonyl)-N^1-[2-(4-fluorophenyl)-1,1-dimethylethyl]-L-α-glutamine], which solubility [9] is on record?
A: Its solubility is 216.4 µg/mL (≈ 454 µM).

Q: For `CC(C)NCC(O)COc1cccc2ccccc12` (centres unmarked) [Propranolol, reference compound], which Papp A→B [12] is on record?
A: The Papp A→B was 62.6 ×10⁻⁶ cm/s.

Q: Which “Degradation products of compound (I) by HPLC in converted materials” value ([6]; after conversion in 2% Tween 80 or water) does the source give for `CC(C)(Cc1ccc(F)cc1)NC(=O)[C@H](CCC(=O)O)NC(=O)c1ccc(-c2ccccc2)cc1` [Sample A, N^2-(1,1′-biphenyl-4-ylcarbonyl)-N^1-[2-(4-fluorophenyl)-1,1-dimethylethyl]-L-α-glutamine] here?
A: Its value is “do not contain degradation products”.

Q: With `CC(C)(Cc1ccc(F)cc1)NC(=O)[C@H](CCC(=O)O)NC(=O)c1ccc(-c2ccccc2)cc1` [Sample 4, N^2-(1,1′-biphenyl-4-ylcarbonyl)-N^1-[2-(4-fluorophenyl)-1,1-dimethylethyl]-L-α-glutamine] as the molecule, how does the solubility ([9]; 2% Tween 80 in water (Tox formulation), aqueous with cosolvent or surfactant or cyclodextrin, thermodynamic from solid, read-out: Solubility) read?
A: The solubility was 221 µg/mL (≈ 464 µM).

— patent US20100216886A1, “POLYMORPHS OF N2-(1,1'-BIPHENYL-4-YLCARBONYL)-N1-[2-(4-FLUOROPHENYL)-1,1-DIMETHYLETHYL]-L-ALPHA-GLUTAMINE” (Wyeth, priority 2006, published 2010)
